# Data from patent publication US20190119298A1, “FUSED 3-PHENYLTETRAMIC ACID DERIVATIVES HAVING HERBICIDAL ACTION” (Bayer CropScience Aktiengesellschaft, priority 2016, published 2019).
# Columns and labels:
# Assay type in all cases: in vivo
# [1] = test system: Lolium multiflorum; assay: Post-emergence herbicidal effect; conditions: one-leaf stage, 320 g/ha, assessed visually after about 3 weeks, 100% = plants have died
# Procedure: (§1) LOLMU: Lolium multiflorum Seeds of monocotyledonous and dicotyledonous weed and crop plants are laid out in sandy loam soil in wood-fibre pots, covered with soil and cultivated in a greenhouse under good growth conditions. 2 to 3 weeks after sowing, the test plants are treated at the one-leaf stage. The compounds of the invention, formulated in the form of wettable powders (WP) or as emulsion concentrates (EC), are then sprayed onto the green parts of the plants as aqueous suspension or emulsion at a water application rate equating to 600 to 800 L/ha with addition of 0.2% wetting agent. After the test plants have been left to stand in the greenhouse under optimal growth conditions for about 3 weeks, the action of the preparations is assessed visually in comparison to untreated controls (herbicidal action in percent (%): 100% activity=the plants have died, 0% activity=like control plants).
# [2] = test system: Setaria viridis; assay: Post-emergence herbicidal effect; conditions: one-leaf stage, 320 g/ha, assessed visually after about 3 weeks, 100% = plants have died
# Procedure: as §1, with “SETVI: Setaria viridis” for “LOLMU: Lolium multiflorum”
# [3] = test system: Lolium multiflorum; assay: Pre-emergence herbicidal effect; conditions: 320 g/ha, scored visually after 3 weeks vs untreated controls, 100% = plants have died
# From the text: (§2) Seeds of monocotyledonous and dicotyledonous weed plants and crop plants are laid out in sandy loam soil in wood-fibre pots and covered with soil. The compounds of the invention, formulated in the form of wettable powders (WP) or as emulsion concentrates (EC), are then applied to the surface of the covering soil as aqueous suspension or emulsion at a water application rate equating to 600 to 800 L/ha with addition of 0.2% wetting agent. After the treatment, the pots are placed in a greenhouse and kept under good growth conditions for the trial plants. The damage to the test plants is scored visually after a test period of 3 weeks by comparison with untreated controls (herbicidal activity in percent (%): 100% activity=the plants have died, 0% activity=like control plants). LOLMU: Lolium multiflorum
# [4] = test system: Avena fatua; assay: Post-emergence herbicidal effect; conditions: one-leaf stage, 320 g/ha, assessed visually after about 3 weeks, 100% = plants have died
# Procedure: as §1, with “AVEFA: Avena fatua” for “LOLMU: Lolium multiflorum”
# [5] = test system: Alopecurus myosuroides; assay: Post-emergence herbicidal effect; conditions: one-leaf stage, 320 g/ha, assessed visually after about 3 weeks, 100% = plants have died
# Procedure: as §1, with “ALOMY: Alopecurus myosuroides” for “LOLMU: Lolium multiflorum”
# [6] = test system: Setaria viridis; assay: Pre-emergence herbicidal effect; conditions: 320 g/ha, scored visually after 3 weeks vs untreated controls, 100% = plants have died
# From the text: as §2, with “SETVI: Setaria viridis” for “LOLMU: Lolium multiflorum”
# [7] = test system: Echinochloa crus-galli; assay: Pre-emergence herbicidal effect; conditions: 320 g/ha, scored visually after 3 weeks vs untreated controls, 100% = plants have died
# From the text: as §2, with “ECHCG: Echinochloa crus-galli” for “LOLMU: Lolium multiflorum”
# [8] = test system: Alopecurus myosuroides; assay: Pre-emergence herbicidal effect; conditions: 320 g/ha, scored visually after 3 weeks vs untreated controls, 100% = plants have died
# From the text: as §2, with “ALOMY: Alopecurus myosuroides” for “LOLMU: Lolium multiflorum”
# [9] = test system: Avena fatua; assay: Pre-emergence herbicidal effect; conditions: 320 g/ha, scored visually after 3 weeks vs untreated controls, 100% = plants have died
# From the text: as §2, with “AVEFA: Avena fatua” for “LOLMU: Lolium multiflorum”
# [10] = test system: Echinochloa crus-galli; assay: Post-emergence herbicidal effect; conditions: one-leaf stage, 320 g/ha, assessed visually after about 3 weeks, 100% = plants have died
# Procedure: as §1, with “ECHCG: Echinochloa crus-galli” for “LOLMU: Lolium multiflorum”
SMILES,Post-emergence effectiveness LOLMU (herbicidal action in percent) [1] [%],Post-emergence effectiveness SETVI (herbicidal action in percent) [2] [%],Pre-emergence action LOLMU (herbicidal activity in percent) [3] [%],Post-emergence effectiveness AVEFA (herbicidal action in percent) [4] [%],Post-emergence effectiveness ALOMY (herbicidal action in percent) [5] [%],Pre-emergence action SETVI (herbicidal activity in percent) [6] [%],Pre-emergence action ECHCG (herbicidal activity in percent) [7] [%],Pre-emergence action ALOMY (herbicidal activity in percent) [8] [%],Pre-emergence action AVEFA (herbicidal activity in percent) [9] [%],Post-emergence effectiveness ECHCG (herbicidal action in percent) [10] [%]
CCc1cc(C)cc(CC)c1C1=C(OC(=O)C(C)(C)C)C2CCOCCN2C1=O (stereo not shown) [Ib-1-3],100,100,100,100,100,100,100,100,100,100
Cc1cc(C)c(C2=C(O)C3CCOCCN3C2=O)c(C)c1 (stereo not shown) [Ia-1-1],100,100,100,100,100,90,100,100,100,100
CCc1cc(Cl)cc(OC)c1C1=C(O)C2CCOCCN2C1=O (stereo not shown) [Ia-1-6],100,100,100,100,100,100,100,100,100,100
"CCc1cc(C)cc(CC)c1C1=C(OC(=O)OC)C2CCOCCN2C1=O (stereo not shown) [Example Ib-1-1, 8-(2,6-Diethyl-4-methylphenyl)-7-oxo-1,2,4,5,7,9a-hexahydropyrrolo[1,2-d][1,4]oxazepin-9-yl methyl carbonate]",100,100,100,100,100,100,100,100,100,100
CCOC(=O)OC1=C(c2c(C)cccc2CC)C(=O)N2CCOCCC12 (stereo not shown) [Ib-1-13],100,100,100,90,100,100,100,80,90,100
CC(=O)OC1=C(c2c(C)cc(C)cc2C)C(=O)N2CCOCCC12 (stereo not shown) [Ib-1-12],100,100,100,100,100,100,100,100,90,100
CCOC(=O)OC1=C(c2c(C)cc(C)cc2CC)C(=O)N2CCOCCC12 (stereo not shown) [Ib-1-7],100,100,100,100,100,100,100,100,100,100
